Test results published in US9150545B2, “Carboxamide compounds and their use as calpain inhibitors V” (ABBVIE DEUTSCHLAND GMBH & CO. KG, priority 2012, dated 2015).
Structures can show the parent of a compound that is named as a salt.

Target: T1, calpain-I isolated from human erythrocytes (Homo sapiens, UniProt P07384)
T1 construct: calpain-I—isolated from human erythrocytes (Calbiochem #208713); purchased Calbiochem 208713; host or cells: human erythrocytes (native tissue isolate)
T1 sequence (P07384 1-714): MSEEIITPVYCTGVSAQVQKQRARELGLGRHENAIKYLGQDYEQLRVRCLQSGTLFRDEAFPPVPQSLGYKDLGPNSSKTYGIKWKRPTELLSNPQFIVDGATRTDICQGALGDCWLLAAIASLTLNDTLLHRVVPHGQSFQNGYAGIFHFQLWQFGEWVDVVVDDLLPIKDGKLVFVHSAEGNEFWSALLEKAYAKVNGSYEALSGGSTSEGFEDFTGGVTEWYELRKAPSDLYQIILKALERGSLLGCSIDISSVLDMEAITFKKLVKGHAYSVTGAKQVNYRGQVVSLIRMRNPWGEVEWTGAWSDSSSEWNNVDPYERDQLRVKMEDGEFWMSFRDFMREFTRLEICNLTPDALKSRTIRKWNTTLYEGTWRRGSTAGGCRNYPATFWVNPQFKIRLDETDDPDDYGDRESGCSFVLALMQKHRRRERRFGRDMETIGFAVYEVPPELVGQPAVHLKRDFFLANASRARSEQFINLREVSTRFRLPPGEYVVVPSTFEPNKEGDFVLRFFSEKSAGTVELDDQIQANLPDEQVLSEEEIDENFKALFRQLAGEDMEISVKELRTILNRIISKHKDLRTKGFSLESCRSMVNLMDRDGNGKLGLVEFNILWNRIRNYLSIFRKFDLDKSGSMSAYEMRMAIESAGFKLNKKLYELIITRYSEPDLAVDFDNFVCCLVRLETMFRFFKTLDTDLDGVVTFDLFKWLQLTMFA
T1 sequence (P04632 1-268 partner): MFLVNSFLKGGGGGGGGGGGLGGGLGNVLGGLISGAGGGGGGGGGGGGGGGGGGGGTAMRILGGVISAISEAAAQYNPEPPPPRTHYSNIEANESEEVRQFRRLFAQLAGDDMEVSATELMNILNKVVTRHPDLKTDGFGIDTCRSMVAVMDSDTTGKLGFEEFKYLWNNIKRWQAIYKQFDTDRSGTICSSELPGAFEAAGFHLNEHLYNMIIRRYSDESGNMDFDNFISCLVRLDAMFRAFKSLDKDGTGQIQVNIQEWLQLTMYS
Test: Calpain I kinetic fluorescence enzyme inhibition assay
Format: biochemical
Details: apparent Ki from IC50 by Cheng-Prussoff
Procedure: Testing for blockade of the corresponding enzymic activities was carried out by means of kinetic fluorescence assays (excitation 390 nm, emission 460 nm).
Apparent Ki values were calculated from the experimentally determined IC50 values by the Cheng-Prussoff relation assuming a reversible competitive enzyme inhibition.
20 nM calpain-I—isolated from human erythrocytes (Calbiochem #208713), 100 μM Suc-Leu-Tyr-AMC (Bachem #I-1355) as substrate in buffer with 62 mM imidazole, 0.3 mM CaCl2, 0.10% CHAPS, 0.05% BSA, 1 mM DTT at pH 7.3 and room temperature.

| SMILES | Ki |
| --- | --- |
| O=C(NC1CC1)C(=O)C(Cc1ccccc1)NC(=O)c1cccnc1-n1ccc(CN2Cc3ccccc3C2)n1 (centres unmarked) [Example C2, reference compound] | 800 to 1000 nM |
| NC(=O)C(=O)C(Cc1ccccc1)NC(=O)c1cccnc1-n1ccc(CN2CCN(c3ccccc3)CC2)n1 (centres unmarked) [Example 32, N-(4-Amino-3,4-dioxo-1-phenylbutan-2-yl)-2-(3-((4-phenylpiperazin-1-yl)methyl)-1H-pyrazol-1-yl)nicotinamide trifluoroacetate] | < 250 nM |
| CN(Cc1ccn(-c2ncccc2C(=O)NC(Cc2ccccc2)C(=O)C(N)=O)n1)CC1CCC(C(F)(F)F)CC1 (centres unmarked) [Example 25, N-(4-Amino-3,4-dioxo-1-phenylbutan-2-yl)-2-(3-((methyl((4-(trifluoromethyl)cyclohexyl)methyl)amino)methyl)-1H-pyrazol-1-yl)nicotinamide trifluoroacetate] | < 250 nM |
| NC(=O)C(=O)C(Cc1ccccc1)NC(=O)c1cccnc1-n1ccc(CN2CCC(C(F)(F)F)CC2)n1 (centres unmarked) [Example 12, N-(4-Amino-3,4-dioxo-1-phenylbutan-2-yl)-2-(3-((4-(trifluoromethyl)piperidin-1-yl)methyl)-1H-pyrazol-1-yl)nicotinamide trifluoroacetate] | < 250 nM |
| NC(=O)C(=O)C(Cc1ccccc1)NC(=O)c1cccnc1-n1cc2c(n1)CCN(Cc1ccccc1)C2 (centres unmarked) [Example 40, N-(4-Amino-3,4-dioxo-1-phenylbutan-2-yl)-2-(5-benzyl-4,5,6,7-tetrahydro-2H-pyrazolo[4,3-c]pyridin-2-yl)nicotinamide] | < 250 nM |
| CC(C)(C)C1CCN(Cc2ccn(-c3ncccc3C(=O)NC(Cc3ccccc3)C(=O)C(N)=O)n2)CC1 (centres unmarked) [Example 23, N-(4-Amino-3,4-dioxo-1-phenylbutan-2-yl)-2-(3-((4-tert-butylpiperidin-1-yl)methyl)-1H-pyrazol-1-yl)nicotinamide] | < 250 nM |
| NC(=O)C(=O)C(Cc1ccccc1)NC(=O)c1cccnc1-n1ccc(CN2CCS(=O)(=O)CC2)n1 (centres unmarked) [Example 34, N-(4-Amino-3,4-dioxo-1-phenyl-2-butanyl)-2-{3-[(1,1-dioxido-4-thiomorpholinyl)methyl]-1H-pyrazol-1-yl}nicotinamide trifluoroacetate] | < 250 nM |
| CN(Cc1ccccc1)Cc1ccn(-c2ncccc2C(=O)NC(Cc2ccccc2)C(=O)C(N)=O)n1 (centres unmarked) [Example 21, N-(4-Amino-3,4-dioxo-1-phenylbutan-2-yl)-2-(3-((benzyl(methyl)amino)methyl)-1H-pyrazol-1-yl)nicotinamide trifluoroacetate] | < 250 nM |
| NC(=O)C(=O)C(Cc1ccccc1)NC(=O)c1cccnc1-n1ccc(CN2CC3C[C@@H](c4ccc(F)cc4)C3C2)n1 (stereo partly drawn) [Example 27, N-(4-Amino-3,4-dioxo-1-phenylbutan-2-yl)-2-(3-(((6R)-6-(4-fluorophenyl)-3-azabicyclo[3.2.0]heptan-3-yl)methyl)-1H-pyrazol-1-yl)nicotinamide trifluoroacetate] | < 250 nM |
| NC(=O)C(=O)C(Cc1ccccc1)NC(=O)c1cccnc1-n1ccc(CN2CC3CC(F)(F)CC3C2)n1 (centres unmarked) [Example 13, N-(4-amino-3,4-dioxo-1-phenyl-2-butanyl)-2-{3-[(5,5-difluorohexahydrocyclopenta[c]pyrrol-2(1H)-yl)methyl]-1H-pyrazol-1-yl}nicotinamide trifluoroacetate] | < 250 nM |
| NC(=O)C(=O)C(Cc1ccccc1)NC(=O)c1cccnc1-n1ccc(CN2CCOC3CCCCC32)n1 (single isomer, unassigned) [Example 8b, 2-(3-((2H-Benzo[b][1,4]oxazin-4(3H,4aH,5H,6H,7H,8H,8aH)-yl)methyl)-1H-pyrazol-1-yl)-N-(4-amino-3,4-dioxo-1-phenylbutan-2-yl)nicotinamide trifluoroacetate] | < 250 nM |
| CCCCC(NC(=O)c1cccnc1-n1ccc(CN2CCC(F)(F)CC2)n1)C(=O)C(N)=O (centres unmarked) [Example 38, N-(1-Amino-1,2-dioxoheptan-3-yl)-2-(3-((4,4-difluoropiperidin-1-yl)methyl)-1H-pyrazol-1-yl)nicotinamide] | < 250 nM |
| NC(=O)C(=O)C(Cc1ccccc1)NC(=O)c1cccnc1-n1ccc(CN2CCc3ccccc32)n1 (centres unmarked) [Example 15, N-(4-Amino-3,4-dioxo-1-phenylbutan-2-yl)-2-(3-(indolin-1-ylmethyl)-1H-pyrazol-1-yl)nicotinamide] | < 250 nM |
| NC(=O)C(=O)C(Cc1ccccc1)NC(=O)c1cccnc1-n1ccc(CN2CCOCC2)n1 (centres unmarked) [Example 1, N-(4-Amino-3,4-dioxo-1-phenylbutan-2-yl)-2-(3-(morpholinomethyl)-1H-pyrazol-1-yl)nicotinamide] | < 250 nM |
| CC1CN(Cc2ccn(-c3ncccc3C(=O)NC(Cc3ccccc3)C(=O)C(N)=O)n2)CC(C)O1 (single isomer, unassigned) [Example 2b, N-(4-Amino-3,4-dioxo-1-phenylbutan-2-yl)-2-(3-((2,6-dimethylmorpholino)-methyl)-1H-pyrazol-1-yl)nicotinamide] | < 250 nM |
| NC(=O)C(=O)C(Cc1ccccc1)NC(=O)c1cccnc1-n1cc2c(n1)CCN(CC1CC1)C2 (centres unmarked) [Example 41, N-(4-Amino-3,4-dioxo-1-phenylbutan-2-yl)-2-(5-(cyclopropylmethyl)-4,5,6,7-tetrahydro-2H-pyrazolo[4,3-c]pyridin-2-yl)nicotinamide] | < 250 nM |
| CCCCC(NC(=O)c1cccnc1-n1ccc(CN2CCCCC2)n1)C(=O)C(N)=O (centres unmarked) [Example 37, N-(1-Amino-1,2-dioxoheptan-3-yl)-2-(3-(piperidin-1-ylmethyl)-1H-pyrazol-1-yl)nicotinamide] | < 250 nM |
| CN(Cc1ccn(-c2ncccc2C(=O)NC(Cc2ccccc2)C(=O)C(N)=O)n1)C1CCCCC1 (centres unmarked) [Example 20, N-(4-Amino-3,4-dioxo-1-phenylbutan-2-yl)-2-(3-((cyclohexyl(methyl)amino)methyl)-1H-pyrazol-1-yl)nicotinamide trifluoroacetate] | < 250 nM |
| NC(=O)C(=O)C(Cc1ccccc1)NC(=O)c1cccnc1-n1ccc(CN2CCCC2)n1 (centres unmarked) [Example 10, N-(4-Amino-3,4-dioxo-1-phenylbutan-2-yl)-2-(3-(pyrrolidin-1-ylmethyl)-1H-pyrazol-1-yl)nicotinamide trifluoroacetate] | 250 to 400 nM |
| NC(=O)C(=O)C(Cc1ccccc1)NC(=O)c1cccnc1-n1ccc(CN2CCOC3CCCCC32)n1 (single isomer, unassigned) [Example 8a, 2-(3-((2H-Benzo[b][1,4]oxazin-4(3H,4aH,5H,6H,7H,8H,8aH)-yl)methyl)-1H-pyrazol-1-yl)-N-(4-amino-3,4-dioxo-1-phenylbutan-2-yl)nicotinamide trifluoroacetate] | < 250 nM |
| NC(=O)C(=O)C(Cc1ccccc1)NC(=O)c1cccnc1-n1ccc(CN2CCC(c3ccccc3)C2)n1 (centres unmarked) [Example 29, N-(4-Amino-3,4-dioxo-1-phenylbutan-2-yl)-2-(3-((3-phenylpyrrolidin-1-yl)methyl)-1H-pyrazol-1-yl)nicotinamide] | < 250 nM |
| NC(=O)C(=O)C(Cc1ccccc1)NC(=O)c1cccnc1-n1ccc(CN2CCc3ccccc3C2)n1 (centres unmarked) [Example 22, N-(4-Amino-3,4-dioxo-1-phenylbutan-2-yl)-2-(3-((3,4-dihydroisoquinolin-2(1H)-yl)methyl)-1H-pyrazol-1-yl)nicotinamide] | < 250 nM |
| CN(Cc1ccn(-c2ncccc2C(=O)NC(Cc2ccccc2)C(=O)C(N)=O)n1)c1ccccc1 (centres unmarked) [Example 16, N-(4-Amino-3,4-dioxo-1-phenylbutan-2-yl)-2-(3-((methyl(phenyl)amino)methyl)-1H-pyrazol-1-yl)nicotinamide] | < 250 nM |
